Source: paper PMC12239085, “Silver(I) Ions Bridging Oxadiazole-2-thione Derivatives with Mitochondriotropic Agents: A Promising Strategy for Potent Anticancer Chemotherapy” (Inorganic Chemistry, 2025)

Tests used:
[1] = system: MCF-7 cells; experiment: Mitochondrial membrane permeabilization (MMP) assay; assay type: cell-based, human; conditions: MCF-7, IC50 values, 48 h
From the text: The assay relies on the fluorescence of a cationic hydrophobic dye, which accumulates in the mitochondrial membrane. Any quenching of the dye’s emitted fluorescence is attributed to the disruption of the mitochondrial membrane, resulting in the release of cytochrome C into the cytosol. ,− The percentage of fluorescence quenching in MCF-7 cells treated with compounds 1–5 is up to 20.7%, with the specific values being 20.0% (1), 20.7% (2), 2.9% (3), 5.1% (4), and 9.6% (5). […] Consequently, cell morphology, AO/EB staining, cell cycle arrest and MMP studies indicate that compounds 1–5 induce apoptosis in MCF-7 cells, primarily through direct or indirect interaction with DNA.
The MMP assay was conducted using the ″Mitochondria Membrane Potential Kit for Microplate Readers″ (MAK147), purchased from Sigma-Aldrich. MCF-7 cells were treated with 1–5 at their IC50 concentration. Fluorescence intensity was measured at an excitation wavelength of λex = 540 nm and an emission wavelength of λem = 590 nm. The experimental results included fluorescence intensities from the treated and untreated cell solutions. ,–

[2] = system: calf thymus (CT)-DNA; experiment: CT-DNA-EB fluorescence displacement; assay type: binding; conditions: for quenching of fluorescence intensity of EB-DNA at 588 nm: EB 2.3 μM, CT-DNA 26 μM, complex 0–600 μM; for apparent binding constant K app: EB displacement
Description: The DNA-complex binding properties can also be studied by fluorescent spectroscopy can also be studied by fluorescent spectroscopy. ,– EB emits intense fluorescence in the presence of DNA due to its strong intercalation between adjacent DNA base pairs. As EB binds to DNA […], its displacement by a compound could indicate either intercalative binding or minor groove interaction, among other possibilities. ,– The emission spectra of the CT-DNA-EB complex were recorded in both the absence and presence of compounds 1–5 (Figure S29). The fluorescence intensity at λmax ^em = 588 nm was quenched by 60.2 (1). 58.5 (2), 62.0 (3), 61.9 (4) and 61.6 (5) %, for 1–5 respectively, compared to the initial fluorescence intensity of the EB-DNA solution.
The fluorescence spectroscopy method using EB was employed to determine the relative DNA binding properties of complexes 1–5 into CT-DNA. The emission spectra at 588 nm of EB (2.3 μM) solutions which contain CT-DNA (26 μM) in the absence or presence of various concentrations of complexes 1–5 (0–600 μM) were recorded upon their excitation at 527 nm. ,− The apparent binding constant (K app) was calculated using the equation: KEB*[EB]=Kapp*[DNA binder] where [DNA binder] is the concentration of the complex at a 50% reduction of the fluorescence, K EB= 10^7 M^–1, and [EB] = 2.3 μM. ,−
The concentration of the drug required to achieve a 50% reduction in fluorescence is determined from the plot of I o/I versus the concentration of the complex [DNA binder], Io/I=1+KSV*[DNA binder] where I o and I represent the fluorescence intensities of CT-DNA in the absence and presence of complexes 1–5, respectively. K SV is the Stern–Volmer dynamic quenching constant and [DNA binder] is the total concentration of the quencher (complexes 1–5). ,−

SMILES | percentage of fluorescence quenching (MMP) [1] [%] | quenching of fluorescence intensity of EB-DNA at 588 nm [2] [%] | apparent binding constant K app [2]
c1ccc(-c2nnc([S][Ag]([PH](c3ccccc3)(c3ccccc3)c3ccccc3)([PH](c3ccccc3)(c3ccccc3)c3ccccc3)[PH](c3ccccc3)(c3ccccc3)c3ccccc3)o2)cc1 [compound 1] | 20.0 | 60.2 | 6.3 × 10^4 M^–1
Fc1ccccc1-c1nnc([S][Ag]([PH](c2ccccc2)(c2ccccc2)c2ccccc2)([PH](c2ccccc2)(c2ccccc2)c2ccccc2)[PH](c2ccccc2)(c2ccccc2)c2ccccc2)o1 [compound 2] | 20.7 | 58.5 | 6.7 × 10^4 M^–1
Fc1ccc(-c2nnc([S][Ag]([PH](c3ccccc3)(c3ccccc3)c3ccccc3)([PH](c3ccccc3)(c3ccccc3)c3ccccc3)[PH](c3ccccc3)(c3ccccc3)c3ccccc3)o2)cc1 [compound 3] | 2.9 | 62.0 | 7.0 × 10^4 M^–1
Clc1ccccc1-c1nnc([S][Ag]([PH](c2ccccc2)(c2ccccc2)c2ccccc2)([PH](c2ccccc2)(c2ccccc2)c2ccccc2)[PH](c2ccccc2)(c2ccccc2)c2ccccc2)o1 [compound 4] | 5.1 | 61.9 | 6.9 × 10^4 M^–1
Clc1cccc(-c2nnc([S][Ag]([PH](c3ccccc3)(c3ccccc3)c3ccccc3)([PH](c3ccccc3)(c3ccccc3)c3ccccc3)[PH](c3ccccc3)(c3ccccc3)c3ccccc3)o2)c1 [compound 5] | 9.6 | 61.6 | 6.5 × 10^4 M^–1
